Measured values published in US20250177396A1, “POLO-LIKE KINASE 4 (PLK4) INHIBITORS, PHARMACEUTICAL COMPOSITIONS, METHODS OF PREPARATION AND USES THEREOF” (Repare Therapeutics Inc., priority 2022, published 2025).
pIC50: −log10 of the molar value.

What follows are molecules tested against T1, PLK4 (Homo sapiens, UniProt O00444) (assay: PLK4 NanoBRET target engagement assay). Conditions: HEK293 T cells transfected with PLK4 NanoLuc fusion vector; K-5 tracer; 2 hrs incubation.
T1 construct: expressed in transfected cells; host or cells: HEK293 T cells (ATCC CRL-3216)
T1 sequence (O00444 1-970): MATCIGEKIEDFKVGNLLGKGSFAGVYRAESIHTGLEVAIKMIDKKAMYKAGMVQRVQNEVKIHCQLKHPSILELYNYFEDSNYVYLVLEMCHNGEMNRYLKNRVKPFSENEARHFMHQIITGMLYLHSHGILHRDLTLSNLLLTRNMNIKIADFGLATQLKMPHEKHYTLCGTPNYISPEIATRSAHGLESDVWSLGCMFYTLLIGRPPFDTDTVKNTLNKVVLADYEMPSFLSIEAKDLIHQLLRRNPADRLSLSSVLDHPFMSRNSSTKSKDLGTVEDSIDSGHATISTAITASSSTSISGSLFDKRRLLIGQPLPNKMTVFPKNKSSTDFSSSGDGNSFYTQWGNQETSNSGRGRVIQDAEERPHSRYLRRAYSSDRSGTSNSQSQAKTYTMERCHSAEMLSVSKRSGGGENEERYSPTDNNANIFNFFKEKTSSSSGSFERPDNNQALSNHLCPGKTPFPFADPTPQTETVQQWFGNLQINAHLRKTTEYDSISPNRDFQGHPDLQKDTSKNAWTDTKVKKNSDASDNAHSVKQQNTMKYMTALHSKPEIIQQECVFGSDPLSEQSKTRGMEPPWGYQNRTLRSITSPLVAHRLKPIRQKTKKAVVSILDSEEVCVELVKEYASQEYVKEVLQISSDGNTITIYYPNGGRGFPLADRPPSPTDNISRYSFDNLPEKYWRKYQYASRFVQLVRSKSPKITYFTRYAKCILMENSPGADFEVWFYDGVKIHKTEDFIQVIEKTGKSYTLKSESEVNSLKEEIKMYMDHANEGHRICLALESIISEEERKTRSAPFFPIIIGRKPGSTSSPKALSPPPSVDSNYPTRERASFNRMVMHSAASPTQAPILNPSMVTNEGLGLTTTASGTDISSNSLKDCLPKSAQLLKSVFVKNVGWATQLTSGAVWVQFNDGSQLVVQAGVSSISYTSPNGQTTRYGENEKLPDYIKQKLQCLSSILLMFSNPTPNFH
Assay type: binding
Procedure, shortened: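 HEK293T cells transiently expressing PLK4-NanoLuc, plated at 17000 cells/well with K-5 tracer and compound, incubated 2 h at 37 °C/5% CO2. After substrate/inhibitor mix, 610/450 nm emission ratio ×1000 gave mBRET; IC50 from 4-parameter fit.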

Row | pIC50 | Compound
1 | 5.77 | COc1c(Nc2cc(C)[nH]n2)nc(-n2ccc3cc(S(C)(=O)=O)ccc32)nc1-c1cnn(C)c1 [Compound 89]
2 | 5.35 | COc1c(Nc2cc(C)[nH]n2)nc(N(C)c2cccc(S(C)(=O)=O)c2)nc1-c1cnn(C)c1 [Compound 78]
3 | 7.80 | Cc1cc(Nc2nc(N(C)c3ccc(S(C)(=O)=O)cc3F)nc(-c3ccn(C)n3)c2C2CC2)n[nH]1 [Compound 12, 5-cyclopropyl-N^2-(2-fluoro-4-(methylsulfonyl)phenyl)-N^2-methyl-6-(1-methyl-1H-pyrazol-3-yl)-N^4-(5-methyl-1H-pyrazol-3-yl)pyrimidine-2,4-diamine]
4 | < 5.30 | Cc1cc(Nc2nc(N(C)c3ccc(S(C)(=O)=O)cc3F)nc(-c3ccn(C)n3)c2C(C)C)n[nH]1 [Compound 60]
5 | 6.21 | COc1c(Nc2cc(C)[nH]n2)nc(Oc2ccc(N(C)S(C)(=O)=O)cc2)nc1-c1cnn(C)c1 [Compound 31]
6 | 7.80 | Cc1cc(Nc2nc(N(C)c3ccc(S(C)(=O)=O)cc3F)nc(-c3cnn4cccnc34)c2C2CC2)n[nH]1 [Compound 108, 5-cyclopropyl-N^2-(2-fluoro-4-(methylsulfonyl)phenyl)-N^2-methyl-N^4-(5-methyl-1H-pyrazol-3-yl)-6-(pyrazolo[1,5-a]pyrimidin-3-yl)pyrimidine-2,4-diamine]
7 | 7.34 | COc1c(Nc2cc(C)[nH]n2)nc(N(C)c2ccc(S(=O)(=O)C(C)(C)C)cc2F)nc1-c1cnn(C)c1 [Compound 76]
8 | 6.92 | COc1c(Nc2cc(C)[nH]n2)nc(N(C)c2ccc(S(=O)(=O)C(C)(C)C)cc2)nc1-c1cnn(C)c1 [Compound 86]
9 | 6.77 | COc1c(Nc2cc(C)[nH]n2)nc(Sc2ccc(S(C)(=O)=O)cc2F)c(F)c1-c1cnn(C)c1 [Compound 95]
10 | 6.85 | COc1c(Nc2cc(C)[nH]n2)nc(N(c2ccc(S(C)(=O)=O)cc2F)C(C)C)nc1-c1cnn(C)c1 [Compound 84]
11 | 7.77 | Cc1cc(Nc2nc(N(C)c3c(F)cc(C(N)=O)cc3F)nc(-c3cn(C)cn3)c2C2CC2)n[nH]1 [Compound 354]
12 | 5.32 | COc1c(Nc2cc(C)[nH]n2)nc(N(C)c2ccc(S(C)(=O)=O)cc2F)c(C)c1-c1cnn(C)c1 [Compound 99]
13 | 5.96 | COc1c(Nc2cc(C)[nH]n2)nc(N(C)c2ccc(S(C)(=O)=O)cc2F)c(F)c1-c1cnn(C)c1 [Compound 24, 3-fluoro-N^2-(2-fluoro-4-(methylsulfonyl)phenyl)-5-methoxy-N^2-methyl-N^6-(5-methyl-1H-pyrazol-3-yl)-4-(1-methyl-1H-pyrazol-4-yl)pyridine-2,6-diamine]
14 | 7.22 | CN(c1nc(Nc2cc(C(F)(F)F)[nH]n2)c(C2CC2)c(-c2cnn(C)c2)n1)c1c(F)cc(S(C)(=O)=O)cc1F [Compound 278]
15 | 7.85 | Cc1cc(Nc2nc(N(C)c3ccc(S(C)(=O)=O)cc3F)nc(-c3cnn(C)c3)c2C)n[nH]1 [Compound 42]
16 | 7.02 | COc1c(Nc2cc(C)[nH]n2)nc(Sc2ccc(S(C)(=O)=O)cc2F)c(C)c1-c1cnn(C)c1 [Compound 22, 6-((2-fluoro-4-(methylsulfonyl)phenyl)thio)-3-methoxy-5-methyl-N-(5-methyl-1H-pyrazol-3-yl)-4-(1-methyl-1H-pyrazol-4-yl)pyridin-2-amine]
17 | 6.85 | Cc1csc(-c2nc(N(C)c3ccc(S(C)(=O)=O)cc3F)nc(Nc3cc(C)[nH]n3)c2C2CC2)n1 [Compound 45]
18 | 7.19 | COc1c(Nc2cc(C)[nH]n2)nc(N(C)c2ccc(S(=O)(=O)C3CC3)cc2F)nc1-c1cnn(C)c1 [Compound 7, N^2-(4-(cyclopropylsulfonyl)-2-fluorophenyl)-5-methoxy-N^2-methyl-N^4-(5-methyl-1H-pyrazol-3-yl)-6-(1-methyl-1H-pyrazol-4-yl)pyrimidine-2,4-diamine]
19 | 7.48 | Cc1cc(Nc2nc(N(C)c3cc(F)c(S(C)(=O)=O)cc3F)nc(-c3cnn(C)c3C(N)=O)c2C2CC2)n[nH]1 [Compound 248]
20 | 7.16 | Cc1cc(Nc2nc(N(C)c3c(F)cc(S(C)(=O)=O)cc3F)nc(-c3ncn(C)n3)c2C2CC2)n[nH]1 [Compound 215]
21 | 6.22 | COc1c(Nc2cc(C)[nH]n2)nc(N(C)c2ccc(Br)cc2F)nc1-c1cnn(C)c1 [Compound 75]
22 | 7.64 | CNC(=O)Cn1cc(-c2nc(N(C)c3c(F)cc(S(C)(=O)=O)cc3F)nc(Nc3cc(C)[nH]n3)c2C2CC2)cn1 [Compound 171]

Continued, molecule first:

Row | Compound | pIC50
23 | Cc1cc(Nc2nc(N(C)c3c(F)cc(S(C)(=O)=O)cc3F)nc(Nc3ccn(C)n3)c2C2CC2)n[nH]1 [Compound 325] | 7.28
24 | Cc1cc(Nc2nc(N(C)c3c(F)cc(S(C)(=O)=O)cc3F)nc(-n3ccccc3=O)c2C2CC2)n[nH]1 [Compound 235] | 5.96
25 | Cc1cc(Nc2nc(N(C)c3c(F)cc(S(C)(=O)=O)cc3F)nc(-c3cnn(C)c3N3CCOC3=O)c2C2CC2)n[nH]1 [Compound 342] | 8.40
26 | Cc1cc(Nc2nc(N(C)c3c(F)cc(CC(=O)N4CCOCC4)cc3F)nc(-c3cn(C)cn3)c2C2CC2)n[nH]1 [Compound 364] | < 5.30
27 | Cc1cc(Nc2nc(N(C)c3c(F)cc(S(C)(=O)=O)cc3F)nc(-c3cn[nH]c3C#N)c2C2CC2)n[nH]1 [Compound 317] | 7.57
28 | Cc1cc(Nc2nc(N(C)c3c(F)cc(S(C)(=O)=O)cc3F)nc(N3CCO[C@@H](C(F)(F)F)C3)c2C2CC2)n[nH]1 [Compound 300] | 6.82
29 | Cc1cc(Nc2nc(N(C)c3c(F)cc(S(C)(=O)=O)cc3F)nc(-c3cn[nH]c3C3CC3)c2C2CC2)n[nH]1 [Compound 316] | 8.30
30 | [2H]C([2H])([2H])n1cc(-c2nc(N(C)c3c(F)cc(S(C)(=O)=O)cc3F)nc(Nc3cc(C)[nH]n3)c2C2CC2)c(C)n1 [Compound 152] | 8.30
31 | Cc1cc(Nc2nc(N(C)c3c(F)cc(S(C)(=O)=O)cc3F)nc(-c3c[nH]cn3)c2C2CC2)n[nH]1 [Compound 103] | 8.05
32 | Cc1cc(Nc2nc(N(C)c3c(F)cc(S(C)(=O)=O)cc3F)nc(-c3nc(C)[nH]c3C)c2C2CC2)n[nH]1 [Compound 168] | 7.39
33 | Cc1cc(Nc2nc(N(C)c3c(F)cc(C(=O)N4CCOCC4)cc3F)nc(-c3cn(C)cn3)c2C2CC2)n[nH]1 [Compound 356] | 6.59
34 | Cc1cc(Nc2nc(N(C)c3c(F)cc(S(C)(=O)=O)cc3F)nc(-c3cnn(C)c3C(=O)N3CC(F)(F)C3)c2C2CC2)n[nH]1 [Compound 264] | 7.60
35 | Cc1cc(Nc2nc(N(C)c3c(F)cc(S(C)(=O)=O)cc3F)nc(-c3cnc4cccnn34)c2C2CC2)n[nH]1 [Compound 267] | 8.22
36 | Cc1cc(Nc2nc(N(C)c3c(F)cc(S(C)(=O)=O)cc3F)nc(-c3c(C)ncn3C)c2C2CC2)n[nH]1 [Compound 129] | 7.24
37 | Cc1cc(Nc2nc(N(C)c3c(F)cc(S(C)(=O)=O)cc3F)nc(-c3cccnn3)c2C2CC2)n[nH]1 [Compound 146] | 7.68
38 | Cc1cc(Nc2nc(N(C)c3cc(F)c(S(C)(=O)=O)cc3F)nc(-c3cn(C4CC4)c(C)n3)c2C2CC2)n[nH]1 [Compound 242] | 8.30
39 | Cc1cc(Nc2nc(N(C)c3c(F)cc(S(C)(=O)=O)cc3F)nc(-c3cnn(C)c3C(=O)N3CCC3)c2C2CC2)n[nH]1 [Compound 263] | 8.05
40 | Cc1cc(Nc2nc(N(C)c3c(F)cc(S(C)(=O)=O)cc3F)nc(-c3cn(C(CO)CO)nc3C)c2C2CC2)n[nH]1 [Compound 177] | 7.42
41 | Cc1cc(Nc2nc(N(C)c3c(F)cc(C4(C(N)=O)CC4)cc3F)nc(-c3cn(C)cn3)c2C2CC2)n[nH]1 [Compound 358] | 7.57
42 | COCCn1cc(-c2nc(N(C)c3c(F)cc(S(C)(=O)=O)cc3F)nc(Nc3cc(C4CC4)[nH]n3)c2C2CC2)c(C)n1 [Compound 276] | 8.40
